Here are results for 30 compounds from patent US20080293712A1, “Benzo[C][2,7]Naphtyridine Derivatives, Methods of Making Thereof and Methods of Use Thereof” (WYETH, priority 2007, published 2008).

In the assay the target is T1, PDK-1 (Homo sapiens, UniProt O15530).
T1 sequence (O15530 1-556): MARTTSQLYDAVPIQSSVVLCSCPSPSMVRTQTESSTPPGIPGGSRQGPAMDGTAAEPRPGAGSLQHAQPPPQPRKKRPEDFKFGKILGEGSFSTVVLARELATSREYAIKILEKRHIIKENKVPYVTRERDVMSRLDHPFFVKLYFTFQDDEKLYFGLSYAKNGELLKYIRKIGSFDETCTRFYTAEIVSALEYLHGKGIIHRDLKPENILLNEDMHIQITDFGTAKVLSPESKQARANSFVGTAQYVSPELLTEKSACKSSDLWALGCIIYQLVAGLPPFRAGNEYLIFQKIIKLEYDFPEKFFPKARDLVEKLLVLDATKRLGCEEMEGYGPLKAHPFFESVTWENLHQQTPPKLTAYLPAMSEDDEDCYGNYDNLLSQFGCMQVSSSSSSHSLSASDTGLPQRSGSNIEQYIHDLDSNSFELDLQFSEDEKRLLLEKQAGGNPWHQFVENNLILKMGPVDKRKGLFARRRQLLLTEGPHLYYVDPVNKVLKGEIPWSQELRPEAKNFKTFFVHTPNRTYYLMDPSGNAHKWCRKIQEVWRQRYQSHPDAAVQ
Briefly: PDK-1 kinase inhibition ELISA assay (phosphorylation of His6-tagged SGK1 S422D by PDK-1). Type of assay: biochemical. In general terms: ELISA stands for enzyme-linked immunosorbent assay.

The mark [1] stands for this setting: PDK-1 ELISA, Table 11, read-out: Average IC50.

What is called IC50 is the concentration at which inhibition is half-maximal.

Where two headings read alike, the source gives them in different places.

In the case of `COc1cc2ncc3c(N)nc(-c4cncc(OC[C@@H](N)COc5ccccc5F)c4)cc3c2cc1OC` [Ib-141, 2-(5-{[(2R)-2-amino-3-(2-fluorophenoxy)propyl]oxy}pyridin-3-yl)-8,9-dimethoxybenzo[c][2,7]naphthyridin-4-amine], the IC50 under setting [1] was determined as 10 nM.

As for `COc1cc2ncc3c(N)nc(-c4cncc(OC[C@@H](N)COc5ccc(F)c(F)c5)c4)cc3c2cc1OC` [Ib-143, 2-(5-{[(2S)-2-amino-3-(3,4-difluorophenoxy)propyl]oxy}pyridin-3-yl)-8,9-dimethoxybenzo[c][2,7]naphthyridin-4-amine], the IC50 under setting [1] was 7 nM.

As to `COc1cc2ncc3c(N)nc(-c4cncc(OC[C@@H](N)COc5cc(C(F)(F)F)ccc5F)c4)cc3c2cc1OC` [Ib-144, 2-[5-({(2R)-2-amino-3-[2-fluoro-5-(trifluoromethyl)phenoxy]propyl}oxy)pyridin-3-yl]-8,9-dimethoxybenzo[c][2,7]naphthyridin-4-amine], the IC50 under setting [1] was found to be 64 nM.

Turning to `COc1cc2ncc3c(N)nc(-c4cncc(OC[C@@H](N)COc5ccc(C(F)(F)F)cn5)c4)cc3c2cc1OC` [Ib-145, 2-(5-{[(2R)-2-amino-3-{[5-(trifluoromethyl)pyridin-2-yl]oxy}propyl]oxy}pyridin-3-yl)-8,9-dimethoxybenzo[c][2,7]naphthyridin-4-amine], the concentration for half-maximal inhibition (IC50) under setting [1] worked out at 4 nM.

Take `COc1cc2ncc3c(N)nc(-c4cncc(OC[C@@H](N)COc5nc6ccccc6[nH]5)c4)cc3c2cc1OC` [Ib-146, 2-(5-{[(2R)-2-amino-3-(1H-benzimidazol-2-yloxy)propyl]oxy}pyridin-3-yl)-8,9-dimethoxybenzo[c][2,7]naphthyridin-4-amine]: under setting [1], the IC50 is 2 nM.

Consider `COc1cc2ncc3c(N)nc(-c4cncc(OC[C@@H](N)COc5nccc6ccccc56)c4)cc3c2cc1OC` [Ib-147, 2-(5-{[(2R)-2-amino-3-(isoquinolin-1-yloxy)propyl]oxy}pyridin-3-yl)-8,9-dimethoxybenzo[c][2,7]naphthyridin-4-amine], for which, under setting [1], the IC50 was found to be 10 nM.

Consider `COc1cc2ncc3c(N)nc(-c4cncc(OC[C@@H](N)COC5=NCCN5)c4)cc3c2cc1OC` [Ib-148, 2-(5-{[(2R)-2-amino-3-(4,5-dihydro-1H-imidazol-2-yloxy)propyl]oxy}pyridin-3-yl)-8,9-dimethoxybenzo[c][2,7]naphthyridin-4-amine], for which the IC50 under setting [1] was determined as 9 nM.

`COc1cc2ncc3c(N)nc(-c4cncc(OC[C@@H](N)COc5ncccn5)c4)cc3c2cc1OC` [Ib-149, 2-(5-{[(2R)-2-amino-3-(pyrimidin-2-yloxy)propyl]oxy}pyridin-3-yl)-8,9-dimethoxybenzo[c][2,7]naphthyridin-4-amine]: the IC50 under setting [1] is 7 nM.

`COc1cc2ncc3c(N)nc(-c4cncc(OC[C@@H](N)COc5nc6ccccc6s5)c4)cc3c2cc1OC` [Ib-150, 2-(5-{[(2R)-2-amino-3-(1,3-benzothiazol-2-yloxy)propyl]oxy}pyridin-3-yl)-8,9-dimethoxybenzo[c][2,7]naphthyridin-4-amine]: under setting [1], the IC50 came out at 6 nM.

As to `COc1cc2ncc3c(N)nc(-c4cncc(OC[C@@H](N)COc5ccncc5)c4)cc3c2cc1OC` [Ib-151, 2-(5-{[(2S)-2-amino-3-(pyridin-4-yloxy)propyl]oxy}pyridin-3-yl)-8,9-dimethoxybenzo[c][2,7]naphthyridin-4-amine], the IC50 under setting [1] was determined as 10 nM.

As for `COc1cc2ncc3c(N)nc(-c4cncc(OC[C@@H](N)COc5cc(C)ccn5)c4)cc3c2cc1OC` [Ib-152, 2-[5-({(2R)-2-amino-3-[(4-methylpyridin-2-yl)oxy]propyl}oxy)pyridin-3-yl]-8,9-dimethoxybenzo[c][2,7]naphthyridin-4-amine], the IC50 under setting [1] was 9 nM.

Regarding `COc1cc2ncc3c(N)nc(-c4cncc(OC[C@@H](N)COc5ncc(Cl)cc5Cl)c4)cc3c2cc1OC` [Ib-153, 2-[5-({(2R)-2-amino-3-[(3,5-dichloropyridin-2-yl)oxy]propyl}oxy)pyridin-3-yl]-8,9-dimethoxybenzo[c][2,7]naphthyridin-4-amine], the concentration for half-maximal inhibition (IC50) under setting [1] came to 4 nM.

`COc1cc2ncc3c(N)nc(-c4cncc(OC[C@@H](N)COc5ccc(Cl)cn5)c4)cc3c2cc1OC` [Ib-154, 2-[5-({(2R)-2-amino-3-[(5-chloropyridin-2-yl)oxy]propyl}oxy)pyridin-3-yl]-8,9-dimethoxybenzo[c][2,7]naphthyridin-4-amine]: under setting [1], the IC50 turned out to be 4 nM.

With `COc1cc2ncc3c(N)nc(-c4cncc(OC[C@@H](N)COc5nccs5)c4)cc3c2cc1OC` [Ib-156, 2-(5-{[(2R)-2-amino-3-(1,3-thiazol-2-yloxy)propyl]oxy}pyridin-3-yl)-8,9-dimethoxybenzo[c][2,7]naphthyridin-4-amine], under setting [1], the IC50 stood at 3 nM.

Take `COc1cc2ncc3c(N)nc(-c4cncc(OC[C@@H](N)COc5ccc(CCC#N)cc5)c4)cc3c2cc1OC` [Ib-158, 3-(4-{[(2S)-2-amino-3-{[5-(4-amino-8,9-dimethoxybenzo[c][2,7]naphthyridin-2-yl)pyridin-3-yl]oxy}propyl]oxy}phenyl)propanenitrile]: the IC50 under setting [1] amounted to 55 nM.

As to `COc1cc2ncc3c(N)nc(-c4cncc(OC[C@@H](N)CSc5ccccn5)c4)cc3c2cc1OC` [Ib-159, 2-(5-{[(2R)-2-amino-3-(pyridin-2-ylthio)propyl]oxy}pyridin-3-yl)-8,9-dimethoxybenzo[c][2,7]naphthyridin-4-amine], the 50% inhibitory concentration (IC50) under setting [1] was 3 nM.

Take `COc1cc2ncc3c(N)nc(-c4cncc(OC[C@@H](N)CSc5nccn5C)c4)cc3c2cc1OC` [Ib-161, 2-[5-({(2R)-2-amino-3-[(1-methyl-1H-imidazol-2-yl)thio]propyl}oxy)pyridin-3-yl]-8,9-dimethoxybenzo[c][2,7]naphthyridin-4-amine]: the IC50 under setting [1] came out at 3 nM.

For `COc1cc2ncc3c(N)nc(-c4cncc(OC[C@@H](N)CSc5ccccc5)c4)cc3c2cc1OC` [Ib-162, 2-(5-{[(2R)-2-amino-3-(phenylthio)propyl]oxy}pyridin-3-yl)-8,9-dimethoxybenzo[c][2,7]naphthyridin-4-amine], the IC50 under setting [1] is 4 nM.

Take `COc1cc2ncc3c(N)nc(-c4cncc(OC[C@@H](N)CSc5ccc(Cl)cc5Cl)c4)cc3c2cc1OC` [Ib-163, 2-[5-({(2R)-2-amino-3-[(2,4-dichlorophenyl)thio]propyl}oxy)pyridin-3-yl]-8,9-dimethoxybenzo[c][2,7]naphthyridin-4-amine]: the half-maximal inhibitory concentration (IC50) under setting [1] is 12 nM.

In the case of `COc1cc2ncc3c(N)nc(-c4cncc(OC[C@@H](N)CSc5ccncc5)c4)cc3c2cc1OC` [Ib-164, 2-(5-{[(2R)-2-amino-3-(pyridin-4-ylthio)propyl]oxy}pyridin-3-yl)-8,9-dimethoxybenzo[c][2,7]naphthyridin-4-amine], the IC50 under setting [1] is 10 nM.

With `COc1cc2ncc3c(N)nc(-c4cncc(OC[C@@H](N)CSc5nccs5)c4)cc3c2cc1OC` [Ib-166, 2-(5-{[(2R)-2-amino-3-(1,3-thiazol-2-ylthio)propyl]oxy}pyridin-3-yl)-8,9-dimethoxybenzo[c][2,7]naphthyridin-4-amine], the IC50 under setting [1] came to 3 nM.

In the case of `COc1cc2ncc3c(N)nc(-c4cncc(OC[C@@H](N)CSc5ncc(CO)n5C)c4)cc3c2cc1OC` [Ib-167, (2-{[(2R)-2-amino-3-{[5-(4-amino-8,9-dimethoxybenzo[c][2,7]naphthyridin-2-yl)pyridin-3-yl]oxy}propyl]thio}-1-methyl-1H-imidazol-5-yl)methanol], the concentration for half-maximal inhibition (IC50) under setting [1] was 5 nM.

Regarding `COc1cc2ncc3c(N)nc(-c4cncc(Oc5ncccc5N)c4)cc3c2cc1OC` [Ib-169, 2-{5-[(3-Aminopyridin-2-yl)oxy]pyridin-3-yl}-8,9-dimethoxybenzo[c][2,7]naphthyridin-4-amine], under setting [1], the IC50 worked out at 60 nM.

For the compound `COc1cc2ncc3c(N)nc(-c4cncc(Oc5ccncc5N)c4)cc3c2cc1OC` [Ib-170, 2-{5-[(3-Aminopyridin-4-yl)oxy]pyridin-3-yl}-8,9-dimethoxybenzo[c][2,7]naphthyridin-4-amine], under setting [1], the half-inhibitory concentration (IC50) came out at 115 nM.

On to `COc1cc2ncc3c(N)nc(-c4cncc(Oc5cccc(N)n5)c4)cc3c2cc1OC` [Ib-171, 2-{5-[(6-Aminopyridin-2-yl)oxy]pyridin-3-yl}-8,9-dimethoxybenzo[c][2,7]naphthyridin-4-amine], for which the IC50 under setting [1] turned out to be 153 nM.

Take `COc1cc2ncc3c(N)nc(-c4cncc(Oc5ccc(N)nc5)c4)cc3c2cc1OC` [Ib-172, 2-{5-[(6-Aminopyridin-3-yl)oxy]pyridin-3-yl}-8,9-dimethoxybenzo[c][2,7]naphthyridin-4-amine]: under setting [1], the half-inhibitory concentration (IC50) was determined as 151 nM.

In turn, `COc1cccc(Nc2cncc(-c3cc4c(cnc5cc(OC)c(OC)cc54)c(N)n3)c2)c1` [Ib-176, 8,9-dimethoxy-2-{5-[(3-methoxyphenyl)amino]pyridin-3-yl}benzo[c][2,7]naphthyridin-4-amine] came in with an IC50 of 434 nM.

Regarding `COc1ccc(Nc2cncc(-c3cc4c(cnc5cc(OC)c(OC)cc54)c(N)n3)c2)cc1` [Ib-177, 8,9-dimethoxy-2-{5-[(4-methoxyphenyl)amino]pyridin-3-yl}benzo[c][2,7]naphthyridin-4-amine], half-maximal inhibition (IC50) required 383 nM.

With `COc1cc2ncc3c(N)nc(-c4cncc(Nc5ccccc5C#N)c4)cc3c2cc1OC` [Ib-178, 2-{[5-(4-amino-8,9-dimethoxybenzo[c][2,7]naphthyridin-2-yl)pyridin-3-yl]amino}benzonitrile], the IC50 under setting [1] turned out to be 105 nM.

On to `COc1cc2ncc3c(N)nc(-c4cncc(Nc5cccc(C#N)c5)c4)cc3c2cc1OC` [Ib-179, 3-{[5-(4-amino-8,9-dimethoxybenzo[c][2,7]naphthyridin-2-yl)pyridin-3-yl]amino}benzonitrile], for which the 50% inhibitory concentration (IC50) under setting [1] is over 700 nM.
